Tests used:
[1] = molecular target: T1, recombinant human-MT1 receptor (Homo sapiens, UniProt P48039); experiment: In vitro MT1 screening, agonist activity (AequoScreen aequorin luminescence); format: cell-based; settings: percentage of activity relative to the reference agonist at the EC100 concentration; for activation at 0.001 µM: read-out: Agonism percentages of MT1, 1 nM; for activation at 0.1 µM: read-out: Agonism percentages of MT1, 100 nM
T1 construct: expressed in transfected cells; host or cells: unnamed cell line stably overexpressing human MT1, co-expressing mitochondrial apoaequorin and Gα16
From the text: To proceed with compound screening over MT1 receptor, a cell line characterised by a stable overexpression of recombinant human-MT1 receptor was used. This line co-expresses mitochondrial apoaequorin and subunit Gα16.
Subunit Gα16 belongs to […], in which intracelular signal transduction is produced via phospholipase (PLC). Activation of PLC produces an increment of inositol-triphosphate levels and intracellular calcium levels. This increment in calcium levels is, therefore, independent and full compatible with the signal transduction of MT1 receptor.
After binding to calcium, aequorin carries out the oxidation of colenterazine to colenteramide, a luminescent reaction.
Assay protocol for agonist screening consists in an overnight incubation of cells and colenterazine, being performed by an AequoScreen™ system instrument, PerkinElmer, USA. After that this mixture was injected over a plate that contains the solution of the compounds to screen and luminescence was immediately read. Only in case of antagonism screening, after 15-30 min of the first injection the reference agonist was added in the same well, and then luminescence was measured.
Agonist activity was calculated as percentage of activity relative to the reference agonist at the EC100 concentration. Activity of antagonists was expressed as the inhibition percentage over the activity of reference agonist at its EC80, concentration.

[2] = therapeutic use in humans; cited from earlier work

T1 sequence (P48039 whole entry): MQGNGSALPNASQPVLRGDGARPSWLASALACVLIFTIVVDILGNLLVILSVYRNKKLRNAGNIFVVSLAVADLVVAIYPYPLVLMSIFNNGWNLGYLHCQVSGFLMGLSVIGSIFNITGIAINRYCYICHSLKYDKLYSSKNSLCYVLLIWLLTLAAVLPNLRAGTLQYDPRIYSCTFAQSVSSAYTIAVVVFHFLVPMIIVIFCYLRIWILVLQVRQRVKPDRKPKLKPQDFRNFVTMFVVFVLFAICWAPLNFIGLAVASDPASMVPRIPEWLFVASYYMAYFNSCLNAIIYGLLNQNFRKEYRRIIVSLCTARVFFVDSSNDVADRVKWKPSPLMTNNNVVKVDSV

Row | Agonism percentages of MT1, 1 nM ([1]; 1 nM compound) [%] | Agonism percentages of MT1, 100 nM ([1]; 100 nM compound) [%] | activation at 0.001 µM ([1]; 1 nM compound) [%] | activation at 0.1 µM ([1]; 100 nM compound) [%] | SMILES | half-life [2]
1 | 48.0 | 102.6 | – | – | COc1ccc2[nH]cc(CCNC(C)=O)c2c1 [Melatonin, reference compound] | minutes
2 | – | – | 24 | 95.2 | COC(=O)NCC(C)c1c[nH]c2cc(F)c3c(c12)CC(C)O3 (centres unmarked) [Compound 40, [2-(4-Fluoro-2-methyl-1,6-dihydro-2H-3-oxa-6-aza-as-indacen-8-yl)-propyl]-carbamic acid methyl ester] | –
3 | – | – | 7.1 | 68.1 | CCOC(=O)NCCc1c[nH]c2cc(F)c3c(c12)CC(C)O3 (centres unmarked) [Compound 30, [2-(4-Fluoro-2-methyl-1,6-dihydro-2H-3-oxa-6-aza-as-indacen-8-yl)-ethyl]-carbamic acid ethyl ester] | –
4 | – | – | 22.3 | 90.4 | CC(C)CC(=O)NCCc1c[nH]c2cc(F)c3c(c12)CC(C)O3 (centres unmarked) [Compound 31, N-[2-(4-Fluoro-2-methyl-1,6-dihydro-2H-3-oxa-6-aza-as-indacen-8-yl)-ethyl]-3-methyl-butyramide] | –
5 | – | – | 47.4 | 118 | CCC(=O)NCC[C@@H]1CCc2ccc3c(c21)CCO3 [Ramelteon, N-[2-[(8S)-1,6,7,8-tetrahydro-2H-indeno[5,4-b]furan-8-yl)ethyl]propionamide, reference compound] | –
6 | – | – | 23 | 82.3 | CC(C)C(=O)NCCc1c[nH]c2cc(F)c3c(c12)CCO3 [Compound 16, N-[2-(4-Fluoro-1,6-dihydro-2H-3-oxa-6-aza-as-indacen-8-yl)-ethyl]-isobutyramide] | –
7 | – | – | 20.9 | 89.7 | CC(C)CC(=O)NCC(C)c1c[nH]c2cc(F)c3c(c12)CC(C)O3 (centres unmarked) [Compound 36, N-[2-(4-Fluoro-2-methyl-1,6-dihydro-2H-3-oxa-6-aza-as-indacen-8-yl)-propyl]-3-methyl-butyramide] | –
8 | – | – | 26.6 | 87.5 | CCNC(=O)NCCc1c[nH]c2cc(F)c3c(c12)CC(C)O3 (centres unmarked) [Compound 33, 1-Ethyl-3-[2-(4-fluoro-2-methyl-1,6-dihydro-2H-3-oxa-6-aza-as-indacen-8-yl)-ethyl]-urea] | –

Source: US8227501B2, “1,6-dihydro-2H-3-oxa-6-aza-as-indacene compounds” (Ferrer Internacional, S.A., priority 2008, dated 2012)
